Reference: PMC8410836, “Rational design of hyperstable antibacterial peptides for food preservation” (NPJ Science of Food, 2021)
Converted amounts (≈) assume the structure as drawn. Where two headings read alike, the source gives them in different places. Where a SMILES comes first, the peptide text is derived from it. Bridges are numbered along the chain shown (N, C = ends).

How the values were obtained:
B. cereus [1] = test: Propidium iodide (PI) uptake assay; assay type: cell-based, Bacillus cereus; conditions: peptides at 2X MIC, Fig. 4e; three biological replicates
Procedure: B. cereus and M. luteus were grown in MH broth to logarithmic phase of growth and then diluted to OD600 ~ 0.25. Serial dilutions of the antimicrobial peptides (final concentrations, 0–100 μg/mL) were added to the wells of a black-walled microplate. Hundred microliters of the bacterial suspension containing PI (final concentration, 10 μM) was added to the wells. The emitted fluorescence was measured at excitation and emission wavelengths of 585 and 620 nm, respectively, for 2 h using a multimode plate reader (Varioskan Flash, Thermo Scientific, USA). The percentage of membrane permeabilization was calculated as the percent of fluorescent intensity of peptide-treated samples with respect to fluorescence intensity of PI-loaded, peptide untreated samples. PI uptake assays were performed as three independent experiments in triplicates.

[2] = system: Micrococcus luteus ATCC4698
Procedure: (§1) Four Gram-positive bacteria: Listeria monocytogenes ATCC13932, Bacillus cereus ATCC11778, Staphylococcus aureus ATCC12900, and Micrococcus luteus ATCC4698 and three Gram-negative bacteria: Escherichia coli ATCC11775, Pectobacterium carotovorum MCC2112, and Salmonella typhimurium ATCC9844 were used in this study. These strains were stored at −80 °C in 25% (v/v) glycerol.
(§2) Antimicrobial assays against various bacterial cultures were done using the microdilution broth assay according to the Clinical and Laboratory Standards Institute (CLSI)[64] with some modifications. Mueller-Hinton broth was used to dilute the peptide stock and the bacterial inoculum. Inoculum was prepared from the mid-logarithmic phase culture. Each well of the microtiter plates received aliquots of 100 µL of the media containing different concentrations of peptide ranging from 0.3 to 300 µg/mL. The final concentration of bacteria in the wells was 5 × 10^5 Colony Forming Units (CFU) per mL. Ampicillin was used as positive control. For negative control, ultrapure water was used instead of peptides. Microtiter plates were incubated at 37 °C for 5–6 h with continuous shaking at 130 rpm (M. luteus cells were incubated for 7–8 h). The incubation time used for these assays was initially optimized using a 20-h incubation period. […] MIC assays were performed as three independent experiments in triplicates.

bovine trypsin [3] = target: T1, bovine trypsin (Bos taurus, UniProt P00760); conditions: BAPNA substrate, pH 8.2, 0.05 M Tris-HCl, 0.02 M CaCl2, 37 °C, double reciprocal and Dixon plot, mean and standard error of two biological replicates
Procedure: (§3) The amidase activity of trypsin and its inhibition was assayed using the chromogenic substrate BAPNA at pH 8.2 in 0.05 M Tris-HCl containing 0.02 M CaCl2 at 37 °C. The assay reaction contained 50 µL of trypsin solution (40–50 μg of trypsin in 1 mM HCl), 50 µL of water, and 125 µL of the substrate. The reaction was carried out at 37 °C for 10 min and stopped by addition of 0.25 mL of 30% acetic acid. […] The trypsin solution was incubated with an aliquot of inhibitor for 10 min at 37 °C and reaction started by the addition of 125 µL substrate and incubated at 37 °C for 10 min. […] The effect of varying substrate concentration (BAPNA) on bovine trypsin in the presence of fixed concentrations of peptides was studied. The inhibition constants (Ki) were evaluated using the double reciprocal and Dixon plot of the data[65],[66]. Data presented are averages and standard error calculated from two biological replicate experiments.

ARPE-19 cells = conditions: 16 h, WST-1, Fig. 10a ARPE-19
Procedure: Cytotoxicity against adult retinal pigmented epithelial (ARPE-19, ATCC CRL2302) cells was measured using WST assay. ARPE-19 cells growing in log phase were seeded into 96-well cell-culture plates at 4 × 10^4 the cells were incubated at 37 °C for 24 h under 5% CO2. Peptide is added with final concentrations of 4–200 µg/mL in Dulbecco’s modified Eagle medium (DMEM/F12). Nutrient mixture media for the treatment group, whereas for the negative control group, media alone was added. The cells were incubated for 16 h at 37 °C under 5% CO2. Ten microliters of WST-1 reagent was added into each well. Plate was incubated at 37 °C for 2 h. Color intensity was measured at 450 nm. Cytotoxicity data presented are averages and standard error from three biological replicate experiments.

[4] = system: Salmonella typhimurium ATCC9844
Procedure: as §1, §2

[5] = system: Pectobacterium carotovorum MCC2112
Procedure: as §1, §2

[6] = system: Bacillus cereus ATCC11778
Procedure: as §1, §2

[7] = system: Escherichia coli ATCC11775
Procedure: as §1, §2

[8] = system: Staphylococcus aureus ATCC12900
Procedure: as §1, §2

[9] = system: Listeria monocytogenes ATCC13932
Procedure: as §1, §2

bovine trypsin [10] = target: T1, bovine trypsin; test: biochemical; conditions: SEM
Procedure: as §3

[11] = system: human red blood cells (hRBCs); conditions: peptide 0 to 200 μg/mL, 4% hRBCs in PBS, 1 h, 37 °C, absorbance 414 nm, Triton X-100 = 100%; three biological replicates
Procedure: The hemolytic activity of the peptide was evaluated using human red blood cells (hRBCs). Erythrocytes were separated from 1 mL of blood by centrifugation at 1500 rpm for 10 min. Collected hRBCs were washed three times with PBS, diluted to 4% (v/v) in PBS. Hundred microliters of the hRBCs having peptides ranging from 4 to 200 µg/mL as added into 96-well microtiter plate. The plates were incubated for 1 h at 37 °C without agitation and centrifuged at 1500 rpm for 5 min. Aliquots (100 μL) of the supernatant were transferred to 96-well plates and absorbance was measured at 414 nm. PBS and 1% Triton X-100 were used as control for 0% and 100% hemolysis, respectively. Percentage of hemolysis was calculated as (AT − AC)/(AX − AC) × 100; where AT is the experimental absorbance of treated supernatants, AC is the control absorbance of PBS-treated cell supernatant, and AX is the absorbance of 0.1% (v/v) Triton X-100 lysed cells. Data presented are averages and standard error from three biological replicate experiments.

B. cereus spores = assay type: cell-based, Bacillus cereus; conditions: spore suspension, resazurin; repeated at least twice
Procedure: B. cereus spores were used to test the effect of peptides on spore germination. Spores were prepared by inoculating 3 mL MH media with B. cereus cells and incubating at 30 °C at 180 rpm for 12 h. 2.5 mL of the culture was inoculated into a 250 mL MH media and incubated at 30 °C for 72 h. Furthermore, culture was temperature-treated at 80 °C for 30 min to eliminate the vegetative cells. Spore suspension was stored at 4 °C until further use. Two microliters of spore suspension was used to test the effect of HSEP3 and Nisin on spore germination using resazurin. All experiments were repeated at least twice.

B. cereus [12] = system: B. cereus
Procedure: as §2
To determine the stability of HSEP3 at higher temperatures, 20 μL of HSEP3 (4 mg/mL) and 20 μL of Nisin in a 0.5 mL tube were autoclaved (for moist heat) at 121 °C for 20 min or heated at 95 °C for 30 min (for dry heat) and cooled to room temperature. Mixture was then used to test the antibacterial activity as previously described. Experiments were repeated in LB media to study the effect of complex media on antibacterial activity. All the experiments were repeated at least two times.

[13] = microdilution broth, MH broth, 5 × 10^5 CFU/mL, 37 °C, 5–6 h, resazurin
[14] = microdilution broth (CLSI, modified), Mueller-Hinton broth, 5 × 10^5 CFU/mL, 37 °C, 7–8 h, resazurin colour change, three independent experiments in triplicates

T1 sequence (P00760 24-246): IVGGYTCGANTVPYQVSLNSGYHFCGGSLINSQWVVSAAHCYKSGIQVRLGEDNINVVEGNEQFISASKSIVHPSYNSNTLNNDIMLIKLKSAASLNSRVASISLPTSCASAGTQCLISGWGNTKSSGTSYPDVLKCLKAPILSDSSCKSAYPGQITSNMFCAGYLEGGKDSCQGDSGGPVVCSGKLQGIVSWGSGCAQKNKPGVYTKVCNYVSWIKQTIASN

Structure (SMILES) | MIC Salmonella typhimurium [4, 13] [µg/mL] | MIC Pectobacterium carotovorum [5, 13] [µg/mL] | MIC Bacillus cereus [6, 13] [µg/mL] | MIC Escherichia coli [7, 13] [µg/mL] | MIC (µg/mL) M. luteus [2, 14] [µg/mL] | MIC Staphylococcus aureus [8, 13] [µg/mL] | MIC Listeria monocytogenes [9, 13] [µg/mL] | Ki (bovine trypsin [10]) [nM] | hemolytic activity [11] [%] | other results
CC[C@H](C)[C@H](NC(=O)[C@@H](NC(=O)[C@@H](N)CO)C(C)C)C(=O)N[C@@H](Cc1ccccc1)C(=O)NCC(=O)N[C@H]1CSSC[C@@H](C(=O)N[C@@H](Cc2ccccc2)C(=O)N[C@H](C(=O)NCC(=O)N[C@@H](Cc2ccccc2)C(=O)N[C@@H](CCCCN)C(=O)O)C(C)C)NC(=O)[C@H]([C@@H](C)CC)NC(=O)[C@@H]2CCCN2C(=O)[C@@H]2CCCN2C(=O)[C@H]([C@@H](C)CC)NC(=O)[C@H](CO)NC(=O)[C@H]([C@@H](C)O)NC1=O [HSEP2-∆K8] (H-SVIFGCTSIPPICFVGFK-OH; disulfide 6-13; N-terminus and C-terminus assumed) | – | – | – | – | – | – | – | – | – | PI uptake fluorescence intensity of treated bacterial cells (B. cereus [1]): minimal fluorescence intensity; MIC (µg/mL) M. luteus ([2]; microdilution broth (CLSI, modified), Mueller-Hinton broth, 5 × 10^5 CFU/mL, 37 °C, 7–8 h, resazurin colour change, three independent experiments in triplicates, listed as HSEP2-ΔK8): did not show any antibacterial activity; Ki (M) against bovine trypsin (bovine trypsin [3]; listed as HSEP2-ΔK8): failed to show any trypsin inhibition
CC[C@H](C)[C@H](NC(=O)[C@@H](NC(=O)[C@@H](N)CO)C(C)C)C(=O)N[C@@H](Cc1ccccc1)C(=O)NCC(=O)N[C@H]1CSSC[C@@H](C(=O)N[C@@H](Cc2ccccc2)C(=O)N[C@H](C(=O)NCC(=O)N[C@@H](Cc2ccccc2)C(=O)N[C@@H](CCCCN)C(=O)O)C(C)C)NC(=O)[C@H]([C@@H](C)CC)NC(=O)[C@@H]2CCCN2C(=O)[C@@H]2CCCN2C(=O)[C@H]([C@@H](C)CC)NC(=O)[C@H](CO)NC(=O)[C@H](CCCCN)NC(=O)[C@H]([C@@H](C)O)NC1=O [HSEP2] (H-SVIFGCTKSIPPICFVGFK-OH; disulfide 6-14) | >150 | 150 (≈ 73.5 µM) | 75 (≈ 36.7 µM) | 150 (≈ 73.5 µM) | 6.25 (≈ 3.06 µM) | >150 | >150 | 580 | < 5 | cell viability (ARPE-19 cells; peptide concentration 200 µg/mL): > 70%; cell viability (ARPE-19 cells; peptide concentration range 0–160 µg/mL, three biological replicates): > 80%
CC[C@H](C)[C@H](NC(=O)[C@@H](NC(=O)[C@H](CO)NC(=O)[C@@H](N)CCCNC(=N)N)C(C)C)C(=O)N[C@@H](Cc1ccccc1)C(=O)NCC(=O)N[C@H]1CSSC[C@@H](C(=O)N[C@@H](Cc2ccccc2)C(=O)N[C@H](C(=O)NCC(=O)N[C@@H](Cc2ccccc2)C(=O)N[C@@H](CCCCN)C(=O)O)C(C)C)NC(=O)[C@H](Cc2ccccc2)NC(=O)[C@H](CCCNC(=N)N)NC(=O)[C@H](CCCNC(=N)N)NC(=O)[C@H](Cc2ccc(O)cc2)NC1=O [HSEP3-∆TL,CL^+] (H-RSVIFGCYRRFCFVGFK-OH; disulfide 7-12) | – | – | – | – | – | – | – | – | – | MIC Salmonella typhimurium ([4]; ATCC9844): >150 µg/mL; MIC Pectobacterium carotovorum [5]: >150 µg/mL; MIC Bacillus cereus ([6]; ATCC11778): >150 µg/mL; MIC Escherichia coli ([7]; ATCC11775): >150 µg/mL; MIC (µg/mL) M. luteus ([2]; ATCC4698): 3.125 µg/mL (≈ 1.5 µM); MIC Staphylococcus aureus ([8]; ATCC12900): >150 µg/mL; MIC Listeria monocytogenes ([9]; ATCC13932): >150 µg/mL; Ki (M) against bovine trypsin (bovine trypsin [3]): did not show any anti-trypsin activity
CC[C@H](C)[C@H](NC(=O)[C@@H](NC(=O)[C@H](CO)NC(=O)[C@@H](N)CCCNC(=N)N)C(C)C)C(=O)N[C@@H](Cc1ccccc1)C(=O)NCC(=O)N[C@H]1CSSC[C@@H](C(=O)N[C@@H](Cc2ccccc2)C(=O)N[C@H](C(=O)NCC(=O)N[C@@H](Cc2ccccc2)C(=O)N[C@@H](CCCCN)C(=O)O)C(C)C)NC(=O)[C@H]([C@@H](C)CC)NC(=O)[C@@H]2CCCN2C(=O)[C@@H]2CCCN2C(=O)[C@H]([C@@H](C)CC)NC(=O)[C@H](CO)NC(=O)[C@H](CCCCN)NC(=O)[C@H]([C@@H](C)O)NC1=O [HSEP3] (H-RSVIFGCTKSIPPICFVGFK-OH; disulfide 7-15) | 85 (≈ 38.7 µM) | 50 (≈ 22.8 µM) | 12.5 (≈ 5.69 µM) | 150 (≈ 68.3 µM) | 1.25 (≈ 0.569 µM) | 150 (≈ 68.3 µM) | 50 (≈ 22.8 µM) | 200 | < 5 | Inhibition of B. cereus spore germination (MIC) (B. cereus spores): 12.5 µg/mL; Effect of steam heat on antibacterial activity (in complex media), MIC (B. cereus [12]; autoclaved at 121 °C for 20 min, LB media): 50 µg/mL; Effect of steam heat on antibacterial activity (in MH media), MIC (B. cereus [12]; autoclaved at 121 °C for 20 min, MH media): 12.5 µg/mL; Effect of dry heat on antibacterial activity, MIC (B. cereus [12]; heated at 95 °C for 30 min): 12.5 µg/mL
